Earlier results as cited in patent US8288413B2, “Benzimidazolones which have activity at M1 receptor” (Glaxo Group Limited, priority 2005, dated 2012).

Columns and labels:
[1] = test system: monkeys
[2] = in vivo
[3] = test system: mice
[4] = test system: rats
[5] = test system: dopamine cell firing
[6] = test system: c-fos expression; conditions: rats
[7] = test system: Alzheimer's patients
[8] = test system: unilateral 6-OH-DA lesioned rats

For `CCCCCCOc1nsnc1C1=CCCN(C)C1` [xanomeline], the EPS liability [1] is listed as “without EPS liability”, the amphetamine-induced motor unrest [1] is listed as “reverses” and the conditioned avoidance [2] is listed as “inhibit”. The apomorphine induced climbing [3] was “reverses”, the amphetamine induced locomotion [4] was “reverses” and the “A9 dopamine cell firing” value ([5]; A9) was “not A9”. The “A10 dopamine cell firing” value ([5]; A10) was “inhibit”, the “c-fos expression in prefrontal cortex and nucleus accumbens” value [6] was “induces” and the “c-fos expression in striatum” value [6] was “not in striatum”. For the same molecule, the “psychotic symptoms such as suspiciousness, hallucinations and delusions” value ([7]; Alzheimer's patients) was “reduce”, the side effects ([7]; clinical use) was “dose-limiting peripheral cholinergic side effects” and the “dopamine agonist driven turning” value [8] was “reverses”.
